Assay results reported in US20250049817A1, “JAK INHIBITOR WITH A VITAMIN D ANALOG FOR TREATMENT OF SKIN DISEASES” (INCYTE CORPORATION, priority 2020, published 2025).

Tests used:
[1] = tested on: human JAK1 (a.a. 837-1142); assay: In vitro JAK kinase assay (HTRF), JAK1; type: biochemical; settings: JAK2/JAK1 IC50 ratio, 1 mM ATP
[2] = molecular target: human JAK1 (a.a. 837-1142) (Homo sapiens, UniProt P23458); assay: In vitro JAK kinase assay (HTRF), JAK1; type: biochemical; settings: 1 mM ATP
[3] = tested on: keratinocyte cell line; settings: concentration-dependent; read-out: IC50 for decreasing keratinocyte cell line proliferation; cited from earlier work

JAK2/JAK1 [1] | IC50 [2] [nM] | SMILES | IC50 [3] [nM]
>10 | < 10 | N#CC[C@]1(n2cc(-c3ncnc4[nH]ccc34)cn2)C[C@H](N2CCN(C(=O)c3ccnc(C(F)(F)F)n3)CC2)C1 [Compound 10, [trans-1-[4-(7H-pyrrolo[2,3-d]pyrimidin-4-yl)-1H-pyrazol-1-yl]-3-(4-{[2-(trifluoromethyl)pyrimidin-4-yl]carbonyl}piperazin-1-yl)cyclobutyl]acetonitrile] | 
>10 | < 10 | N#CC[C@]1(n2cc(-c3ncnc4[nH]ccc34)cn2)C[C@H](N2CCC(Oc3cc(CN4CC(O)C4)cc(C(F)(F)F)n3)CC2)C1 [Compound 11, {trans-3-(4-{[4-[(3-hydroxyazetidin-1-yl)methyl]-6-(trifluoromethyl)pyridin-2-yl]oxy}piperidin-1-yl)-1-[4-(7H-pyrrolo[2,3-d]pyrimidin-4-yl)-1H-pyrazo1-1-yl]cyclobutyl}acetonitrile] | 
>10 | < 10 | N#CC[C@]1(n2cc(-c3ncnc4[nH]ccc34)cn2)C[C@H](N2CCC(Oc3cc(CN4CCC[C@H]4CO)cc(C(F)(F)F)n3)CC2)C1 [Compound 12, {trans-3-(4-{[4-{[(2S)-2-(hydroxymethyl)pyrrolidin-1-yl]methyl}-6-(trifluoromethyl)pyridin-2-yl]oxy}piperidin-1-yl)-1-[4-(7H-pyrrolo[2,3-d]pyrimidin-4-yl)-1H-pyrazol-1-yl]cyclobutyl}acetonitrile] | 
>10 | < 10 | N#CC[C@]1(n2cc(-c3ncnc4[nH]ccc34)cn2)C[C@H](N2CCC(Oc3cc(CN4CCC[C@@H]4CO)cc(C(F)(F)F)n3)CC2)C1 [Compound 13, {trans-3-(4-{[4-{[(2R)-2-(hydroxymethyl)pyrrolidin-1-yl]methyl}-6-(trifluoromethyl)pyridin-2-yl]oxy}piperidin-1-yl)-1-[4-(7H-pyrrolo[2,3-d]pyrimidin-4-yl)-1H-pyrazol-1-yl]cyclobutyl}acetonitrile] | 
>10 | < 10 | C[C@H](NC(=O)c1cc(F)c(N2CC(CC#N)(n3cc(-c4ncnc5[nH]ccc45)cn3)C2)cc1F)C(F)(F)F [Compound 16, 4-{3-(cyanomethyl)-3-[4-(7H-pyrrolo[2,3-d]pyrimidin-4-yl)-1H-pyrazol-1-yl]azetidin-1-yl]-2,5-difluoro-N-[(1S)-2,2,2-trifluoro-1-methylethyl]benzamide] | 
>10 | < 10 | N#CCC1(n2cc(-c3ncnc4[nH]ccc34)cn2)CN([C@H]2CC[C@@H](Oc3cc(CCO)nc(C(F)(F)F)n3)CC2)C1 [Compound 18, {1-(cis-4-{[6-(2-hydroxyethyl)-2-(trifluoromethyl)pyrimidin-4-yl]oxy}cyclohexyl)-3-[4-(7H-pyrrolo[2,3-d]pyrimidin-4-yl)-1H-pyrazol-1-yl]azetidin-3-yl}acetonitrile] | 
>10 | < 10 | CCNCc1cc(O[C@H]2CC[C@@H](N3CC(CC#N)(n4cc(-c5ncnc6[nH]ccc56)cn4)C3)CC2)nc(C(F)(F)F)c1 [Compound 19, {1-(cis-4-{[4-[(ethylamino)methyl]-6-(trifluoromethyl)pyridin-2-yl]oxy}cyclohexyl)-3-[4-(7H-pyrrolo[2,3-d]pyrimidin-4-yl)-1H-pyrazol-1-yl]azetidin-3-yl}acetonitrile] | 
>10 | < 10 | CC(C)(O)c1cc(O[C@H]2CC[C@@H](N3CC(CC#N)(n4cc(-c5ncnc6[nH]ccc56)cn4)C3)CC2)nc(C(F)(F)F)c1 [Compound 20, {1-(cis-4-{[4-(1-hydroxy-1-methylethyl)-6-(trifluoromethyl)pyridin-2-yl]oxy]cyclohexyl)-3-[4-(7H-pyrrolo[2,3-d]pyrimidin-4-yl)-1H-pyrazol-1-yl]azetidin-3-yl}acetonitrile] | 
>10 | < 10 | N#CCC1(n2cc(-c3ncnc4[nH]ccc34)cn2)CN([C@H]2CC[C@@H](Oc3cc(CN4CC[C@@H](O)C4)cc(C(F)(F)F)n3)CC2)C1 [Compound 21, {1-(cis-4-{[4-{[(3R)-3-hydroxypyrrolidin-1-yl]methyl}-6-(trifluoromethyl)pyridin-2-yl]oxy}cyclohexyl)-3-[4-(7H-pyrrolo[2,3-d]pyrimidin-4-yl)-1H-pyrazol-1-yl]azetidin-3-yl}acetonitrile] | 
>10 | < 10 | N#CCC1(n2cc(-c3ncnc4[nH]ccc34)cn2)CN([C@H]2CC[C@@H](Oc3cc(CN4CC[C@H](O)C4)cc(C(F)(F)F)n3)CC2)C1 [Compound 22, {1-(cis-4-{[4-{[(3S)-3-hydroxypyrrolidin-1-yl]methyl}-6-(trifluoromethyl)pyridin-2-yl]oxy}cyclohexyl)-3-[4-(7H-pyrrolo[2,3-d]pyrimidin-4-yl)-1H-pyrazol-1-yl]azetidin-3-yl}acetonitrile] | 
>10 | < 10 | C[C@@H](CO)NCc1cc(OC2CCN([C@H]3C[C@](CC#N)(n4cc(-c5ncnc6[nH]ccc56)cn4)C3)CC2)nc(C(F)(F)F)c1 [Compound 23, {trans-3-(4-{[4-({[(1S)-2-hydroxy-1-methylethyl]amino}methyl)-6-(trifluoromethyl)pyridin-2-yl]oxy}piperidin-1-yl)-1-[4-(7H-pyrrolo[2,3-d]pyrimidin-4-yl)-1H-pyrazol-1-yl]cyclobutyl}acetonitrile] | 
>10 | < 10 | C[C@@H](O)CNCc1cc(OC2CCN([C@H]3C[C@](CC#N)(n4cc(-c5ncnc6[nH]ccc56)cn4)C3)CC2)nc(C(F)(F)F)c1 [Compound 24, {trans-3-(4-{[4-({[(2R)-2-hydroxypropyl]amino}methyl)-6-(trifluoromethyl)pyridin-2-yl]oxy}piperidin-1-yl)-1-[4-(7H-pyrrolo[2,3-d]pyrimidin-4-yl)-1H-pyrazol-1-yl]cyclobutyl]acetonitrile] | 
>10 | < 10 | C[C@H](O)CNCc1cc(OC2CCN([C@H]3C[C@](CC#N)(n4cc(-c5ncnc6[nH]ccc56)cn4)C3)CC2)nc(C(F)(F)F)c1 [Compound 25, {trans-3-(4-{[4-({[(2S)-2-hydroxypropyl]amino}methyl)-6-(trifluoromethyl)pyridin-2-yl]oxy}piperidin-1-yl)-1-[4-(7H-pyrrolo[2,3-d]pyrimidin-4-yl)-1H-pyrazol-1-yl]cyclobutyl}acetonitrile] | 
>10 | < 10 | N#CC[C@]1(n2cc(-c3ncnc4[nH]ccc34)cn2)C[C@H](N2CCC(Oc3cc(CCO)cc(C(F)(F)F)n3)CC2)C1 [Compound 26, {trans-3-(4-{[4-(2-hydroxyethyl)-6-(trifluoromethyl)pyridin-2-yl]oxy}piperidin-1-yl)-1-[4-(7H-pyrrolo[2,3-d]pyrimidin-4-yl)-1H-pyrazol-1-yl]cyclobutyl]acetonitrile] | 

More lines, now with the values behind:

SMILES | JAK2/JAK1 [1] | IC50 [2] [nM] | IC50 [3] [nM]
N#CCC(C1CCN(c2cccc(Cl)n2)C1)n1cc(-c2ncnc3[nH]ccc23)cn1 (single isomer, unassigned) [Compound 6, 3-[1-(6-chloropyridin-2-yl)pyrrolidin-3-yl]-3-[4-(7H-pyrrolo[2,3-d]pyrimidin-4-yl)-1H-pyrazol-1-yl]propanenitrile] | >10 | < 10 | 
N#CCC1(n2cc(-c3ncnc4[nH]ccc34)cn2)CN(C2CCN(C(=O)c3ccnc(C(F)(F)F)c3F)CC2)C1 [Compound 1, {1-{1-[3-Fluoro-2-(trifluoromethyl)isonicotinoyl]piperidin-4-yl}-3-[4-(7H-pyrrolo [2,3-d]pyrimidin-4-yl)-1H-pyrazol-1-yl]azetidin-3-yl}acetonitrile] | >10 | < 10 | 
N#CCC1(n2cc(-c3ncnc4[nH]ccc34)cn2)CN(C2CCN(C(=O)Nc3ccc(F)cc3C(F)(F)F)CC2)C1 [Compound 2, 4-{3-(Cyanomethyl)-3-[4-(7H-pyrrolo[2,3-d]pyrimidin-4-yl)-1H-pyrazol-1-yl]azetidin-1-yl}-N-[4-fluoro-2-(trifluoromethyl)phenyl] piperidine-1-carboxamide] | >10 | < 10 | 
N#CCC1(n2cc(-c3ncnc4[nH]ccc34)cn2)CN(C2CCN(C(=O)c3ccnc(C(F)(F)F)n3)CC2)C1 [Compound 3, [3-[4-(7H-pyrrolo[2,3-d]pyrimidin-4-yl)-1H-pyrazol-1-yl]-1-(1-{[2-(trifluoromethyl)pyrimidin-4-yl]carbonyl}piperidin-4-yl)azetidin-3-yl]acetonitrile] | >10 | < 10 | 
C[C@@H](O)c1nc2cnc3ccsc3c2n1[C@H]1CC[C@H](CC#N)OC1 [Compound 5, ((2R,5S)-5-{2-[(1R)-1-hydroxyethyl]-1H-imidazo[4,5-d]thieno[3,2-b]pyridin-1-yl}tetrahydro-2H-pyran-2-yl)acetonitrile] | >10 | < 100 | 
N#CCC(C1CCN(c2nc3cccnc3o2)C1)n1cc(-c2ncnc3[nH]ccc23)cn1 (stereo not shown) [Compound 7, 3-(1-[1,3]oxazolo[5,4-b]pyridin-2-ylpyrrolidin-3-yl)-3-[4-(7H-pyrrolo[2,3-d]pyrimidin-4-yl)-1H-pyrazol-1-yl]propanenitrile] | >10 | < 10 | 
N#CCC(CN1CCN(C(=O)c2ccc(C#N)cc2F)CC1)n1cc(-c2ncnc3[nH]ccc23)cn1 (stereo not shown) [Compound 8, 4-[(4-{3-cyano-2-[4-(7H-pyrrolo[2,3-d]pyrimidin-4-yl)-1H-pyrazol-1-yl]propyl}piperazin-1-yl)carbonyl]-3-fluorobenzonitrile] | >10 | < 10 | 
N#CCC(CN1CCN(C(=O)c2ccc(C#N)cc2F)CC1)n1ccc(-c2ncnc3[nH]ccc23)c1 (stereo not shown) [Compound 9, 4-[(4-{3-cyano-2-[3-(7H-pyrrolo[2,3-d]pyrimidin-4-yl)-1H-pyrrol-1-yl]propyl}piperazin-1-yl)carbonyl]-3-fluorobenzonitrile] | >10 | < 10 | 
C=C1/C(=C\C=C2/CCC[C@]3(C)[C@@H]([C@H](C)OCCC(C)(C)O)CC[C@@H]23)C[C@@H](O)C[C@@H]1O [maxacalcitol] |  |  | 10 to 100
C=C1/C(=C\C=C2/CCC[C@]3(C)[C@@H]([C@H](C)CC[C@@H](O)C(C)C)CC[C@@H]23)C[C@@H](O)C[C@@H]1O [tacalcitol] |  |  | 10 to 100
